# Source: PMC2361324, “Phase 1 trial of the antiangiogenic peptide ATN-161 (Ac-PHSCN-NH2), a beta integrin antagonist, in patients with solid tumours” (British Journal of Cancer, 2006)
# Where two headings read alike, the source gives them in different places.
# How the values were obtained:
# [1] = Urinary excretion and renal clearance in phase 1 trial; type: in vivo, human; conditions: urine; for dose excreted: human, iv
# Description: (§1) Blood samples for PK analysis were collected in EDTA-coated tubes on Day 1 for all patients preinfusion, at the end of infusion, and at 5, 10, 15, 30, 45, 60, 90, 120, 150, 180, 240, 400, 460 and 520 min after infusion. Samples were immediately centrifuged, and the plasma was separated and stored at −20°C prior to analysis.
# (§2) Pharmacokinetic data were modelled using a noncompartmental approach to estimate individual subject values for the following parameters: maximum observed concentration (Cmax), time of the maximum observed concentration (Tmax), volume of distribution at steady state (VSS), terminal elimination half-life (t1/2), total systemic clearance (CL), area under the plasma concentration-time curve (AUC), and CLr. For these parameters the mean and s.d. coefficient of variation were calculated.
# (§3) Descriptive PKs parameters were determined by standard model independent methods for infusion administration ([Perrier and Gibaldi, 1982]) from plasma concentrations in each individual patient. Plasma and urine concentrations were rounded to the nearest [drawing 1] ng ml^−1 before the calculations. Plasma samples with concentrations below the quantifiable limit of 50.0 ng ml^−1 (BQL) were assigned values of zero for generation of mean and s.d. plasma concentrations. For PKs calculations, BQL was treated as zero up to the first quantifiable plasma concentration and then treated as an empty value thereafter. Urine samples reported as BQL (⩽50.0 ng ml^−1) were treated as zero for all calculations. Actual patient blood collection sampling times relative to the start of infusion were used for PKs calculations; however, scheduled collection times were used for urinary excretion data and graphical presentations of all data.
# [2] = Toxicity / adverse events in phase 1 trial (NCI CTC v2.0); type: in vivo, human; conditions: for Number of patients with ATN-161-associated adverse events: possible, probable or definite relationship
# Description: ATN-161 was administered as a 10-min infusion, three times per week. Sequential cohorts of three patients were enrolled to eight different dose levels (0.1, 0.25, 0.5, 1.0, 2.0, 4.0, 8.0 and 16.0 mg kg^−1). All patients in a given dose level were evaluated for at least 28 days before patients could be treated at the next higher dose level. Patients receiving therapy for <1 cycle (4 weeks) were to be replaced unless they had experienced a DLT. Toxicity was evaluated according to the NCI Common Terminology Criteria (CTC) Version 2.0. Dose-limiting toxicities were defined as any of the following treatment-related events occurring during the first cycle of therapy: Grade 4 neutropenia or febrile neutropenia, any other Grade 3 or greater nonhaematologic toxicity, or any toxicity requiring ATN-161 to be held for more than 1 week (i.e., three consecutive missed doses). In the event of DLT, dosing was to be held until recovery to at least Grade 1 toxicity and a new dosing cycle for that patient was to be initiated at the investigator's discretion at 50% of the previous dose. […] In the event of Grade 2 toxicity involving vital organs (hepatic, pulmonary, renal, neurologic, gastrointestinal or cardiotoxicity), the dose of ATN-161 was to be held until recovery to Grade 0–1 before a new cycle was initiated at 100% dosing. If the Grade 2 toxicity recurred, dosing was to be held until recovery to Grade 0–1 and the next cycle would resume at 50%. Occurrence of DLT at a given dose level would require further enrolment of up to six patients at that dose level to determine if the MTD had been exceeded. The MTD was defined as one dose level below which ⩾2/6 patients experienced a DLT. Treatment could continue until progressive disease, or one of the following: unacceptable toxicity, intercurrent illness, patient declined further treatment, or physician decision in view of a patient's other medical conditions.
# During treatment, patients were evaluated monthly with physical examinations including toxicity assessment using the CTC, ECOG PS, serum chemistry, haematology and coagulation testing. Tumour burden was reassessed every two cycles (8 weeks) by physical exam or radiological methods as appropriate using RECIST ([Therasse et al, 2000]).
# No inferential analyses were performed. Data are presented in a descriptive fashion. Treatment-emergent adverse events were translated from investigator terms to MedDRA terminology and summarised within and across dose levels for all patients who received at least one dose of ATN-161. Treatment administration is described for all patients, including drug/dose administration, number of cycles, dose modifications or delays and duration of therapy.
# [3] = Serological antibody immune response against ATN-161 in patients; type: in vivo, human
# MLL tumours = conditions: Copenhagen rats, ref Livant et al, 2000b, cited from earlier work
# MLL cells = conditions: attempts to show induction; ref Livant et al, 2000b; cited from earlier work
# [4] = animal studies, preclinical; ref not given; cited from earlier work
# [5] = except at extremely high, supratherapeutic doses, ref not given, cited from earlier work
# Text: These preclinical animal models included assessment of the effects of ATN-161 on tumour growth, metastasis, angiogenesis, tumour perfusion and circulating endothelial progenitor cells (CEPs) ([Donate et al, 2003]). […] We designed the phase 1 trial to evaluate a dose range in human beings (using well-established rules for interspecies dose conversi ...
# [6] = Plasma pharmacokinetics in phase 1 trial; conditions: human, iv; for Vd: patients, Day 1, HPLC-MS/MS, noncompartmental, cohort mean
# Description: as §1, §2, §3
# [7] = dose level 0.5 mg kg^−1, ATN-161-associated, any course
# [8] = dose level 1.0 mg kg^−1, ATN-161-associated, any course
# [9] = dose level 2.0 mg kg^−1, ATN-161-associated, any course
# [10] = dose level 4.0 mg kg^−1, ATN-161-associated, any course
substance,measurement,setting,value
"Ac-PHSCN-NH2 [ATN-161, Ac-PHSCN-NH2]",time after dose administration in which the majority of the dose was excreted,[1]; almost all patients (23 of 26),≤ 2 h
same,dose excreted,"[1]; 0.1 mg/kg, patients, 0.1 mg kg^−1 10-min i.v. infusion, Day 1, HPLC-MS/MS, cohort mean, read-out: Urinary excretion between 0 and 7 h as a percent of dose",2.46%
same,dose excreted,"[1]; 0.25 mg/kg, patients, 0.25 mg kg^−1 10-min i.v. infusion, Day 1, HPLC-MS/MS, cohort mean, read-out: Urinary excretion between 0 and 7 h as a percent of dose",13.8%
same,dose excreted,"[1]; 0.5 mg/kg, patients, 0.5 mg kg^−1 10-min i.v. infusion, Day 1, HPLC-MS/MS, cohort mean, read-out: Urinary excretion between 0 and 7 h as a percent of dose",25.3%
same,dose excreted,"[1]; 1 mg/kg, patients, 1 mg kg^−1 10-min i.v. infusion, Day 1, HPLC-MS/MS, cohort mean, read-out: Urinary excretion between 0 and 7 h as a percent of dose",1.82%
same,dose excreted,"[1]; 2 mg/kg, patients, 2 mg kg^−1 10-min i.v. infusion, Day 1, HPLC-MS/MS, cohort mean, read-out: Urinary excretion between 0 and 7 h as a percent of dose",2.35%
same,dose excreted,"[1]; 4 mg/kg, patients, 4 mg kg^−1 10-min i.v. infusion, Day 1, HPLC-MS/MS, cohort mean, read-out: Urinary excretion between 0 and 7 h as a percent of dose",2.36%
same,dose excreted,"[1]; 8 mg/kg, patients, 8 mg kg^−1 10-min i.v. infusion, Day 1, HPLC-MS/MS, cohort mean, read-out: Urinary excretion between 0 and 7 h as a percent of dose",17.5%
same,dose excreted,"[1]; 16 mg/kg, patients, 16 mg kg^−1 10-min i.v. infusion, Day 1, HPLC-MS/MS, cohort mean, read-out: Urinary excretion between 0 and 7 h as a percent of dose",15.3%
same,dose excreted,"[1]; majority of the patients (20 of 26), all dose levels, urine 0-7 h, read-out: Urinary excretion, percent of administered dose",~2%
same,dose excreted,"[1]; remaining six of 26 patients, not associated with dose level, urine 0-7 h, read-out: Urinary excretion, percent of administered dose",20 to 50%
same,Number of patients with Muscle cramps,[2]; [7],1
same,Number of patients with Sweating increased,[2]; [7],1
same,Number of patients with ATN-161-associated adverse events,"[2]; dose level 0.5 mg kg^−1, any course",1
same,Number of patients with Cellulitis,[2]; [8],1
same,Number of patients with Dry mouth,[2]; [8],1
same,Number of patients with Pain in limb,[2]; [8],1
same,Number of patients with Paresthesia,[2]; [8],1
same,Number of patients with Phlebitis not otherwise specified (NOS),[2]; [8],1
same,Number of patients with ATN-161-associated adverse events,"[2]; dose level 1.0 mg kg^−1, any course",1
same,Number of patients with Anemia NOS,[2]; [9],1
same,Number of patients with Hypotension NOS,[2]; [9],1
same,Number of patients with Oral candidiasis,[2]; [9],1
same,Number of patients with ATN-161-associated adverse events,"[2]; dose level 2.0 mg kg^−1, any course",2
same,Number of patients with Constipation,[2]; [10],1
same,Number of patients with Fatigue,[2]; [10],1
same,Number of patients with Nausea,[2]; [10],2
same,Number of patients with ATN-161-associated adverse events,"[2]; dose level 4.0 mg kg^−1, any course",2
same,Number of patients with Nausea,"[2]; dose level 8.0 mg kg^−1, ATN-161-associated, any course",1
same,Number of patients with ATN-161-associated adverse events,"[2]; dose level 8.0 mg kg^−1, any course",1
same,Number of patients with Hypotension NOS,"[2]; dose level 16.0 mg kg^−1, ATN-161-associated, any course",1
same,Number of patients with ATN-161-associated adverse events,"[2]; dose level 16.0 mg kg^−1, any course",1
same,Dose-limiting toxicities (DLTs),"[2]; patients, 0.1-16 mg kg^−1 thrice weekly i.v., 26 patients",no DLTs occurred
same,MTD (maximum tolerated dose),"[2]; patients, 10-min i.v. infusion three times per week, not reached, 16 mg kg^−1 designated maximum administered dose",> 16 mg/kg
same,Antibody immune response against ATN-161,[3],no serological evidence
same,Growth of primary MLL tumours,"MLL tumours; systemic 5 mg kg^−1, five injections over 16 days",markedly reduced
same,Ability of MLL tumour cells to metastasise,MLL tumours,inhibited
same,Induction of apoptosis in MLL cells,MLL cells,unsuccessful
same,Immunogenicity,[4],not immunogenic
same,Toxicity in preclinical toxicology studies,[5]; primates,no consistent evidence of ATN-161 toxicity
same,Toxicity in preclinical toxicology studies,[5]; rats,no consistent evidence of ATN-161 toxicity
same,AUC(0-t),[6]; 0.25 mg/kg,3420 ng·h/mL
same,Cmax,[6]; 0.25 mg/kg,1120 ng/mL
same,MRT,[6]; 0.25 mg/kg,5.5 h
same,clearance,[6]; 0.25 mg/kg,1.33 mL/min/kg
same,half-life,[6]; 0.25 mg/kg,4.4 h
same,Vd,"[6]; 0.25 mg/kg, Vd (volume of distribution), 0.25 mg kg^−1 10-min i.v. infusion",0.48 L/kg
same,Vd,"[6]; 0.25 mg/kg, Vss (volume of distribution at steady state), 0.25 mg kg^−1 10-min i.v. infusion",0.33 L/kg
same,AUC(0-t),[6]; 0.5 mg/kg,3610 ng·h/mL
same,Cmax,[6]; 0.5 mg/kg,5790 ng/mL
same,MRT,[6]; 0.5 mg/kg,3.3 h
same,clearance,[6]; 0.5 mg/kg,2.83 mL/min/kg
same,half-life,[6]; 0.5 mg/kg,3.2 h
same,Vd,"[6]; 0.5 mg/kg, Vd (volume of distribution), 0.5 mg kg^−1 10-min i.v. infusion",0.87 L/kg
same,Vd,"[6]; 0.5 mg/kg, Vss (volume of distribution at steady state), 0.5 mg kg^−1 10-min i.v. infusion",0.47 L/kg
same,AUC(0-t),[6]; 1 mg/kg,1450 ng·h/mL
same,Cmax,[6]; 1 mg/kg,3800 ng/mL
same,MRT,[6]; 1 mg/kg,3.8 h
same,clearance,[6]; 1 mg/kg,10.2 mL/min/kg
same,half-life,[6]; 1 mg/kg,3.9 h
same,Vd,"[6]; 1 mg/kg, Vd (volume of distribution), 1 mg kg^−1 10-min i.v. infusion",3.38 L/kg
same,Vd,"[6]; 1 mg/kg, Vss (volume of distribution at steady state), 1 mg kg^−1 10-min i.v. infusion",2.3 L/kg
same,AUC(0-t),[6]; 2 mg/kg,3320 ng·h/mL
same,Cmax,[6]; 2 mg/kg,15700 ng/mL
same,MRT,[6]; 2 mg/kg,2.5 h
same,clearance,[6]; 2 mg/kg,11.5 mL/min/kg
same,half-life,[6]; 2 mg/kg,3.5 h
same,Vd,"[6]; 2 mg/kg, Vd (volume of distribution), 2 mg kg^−1 10-min i.v. infusion",3.38 L/kg
same,Vd,"[6]; 2 mg/kg, Vss (volume of distribution at steady state), 2 mg kg^−1 10-min i.v. infusion",1.93 L/kg
same,AUC(0-t),[6]; 4 mg/kg,3710 ng·h/mL
same,Cmax,[6]; 4 mg/kg,5480 ng/mL
same,MRT,[6]; 4 mg/kg,4.8 h
same,clearance,[6]; 4 mg/kg,14.5 mL/min/kg
same,half-life,[6]; 4 mg/kg,4.3 h
same,Vd,"[6]; 4 mg/kg, Vd (volume of distribution), 4 mg kg^−1 10-min i.v. infusion",5.59 L/kg
same,Vd,"[6]; 4 mg/kg, Vss (volume of distribution at steady state), 4 mg kg^−1 10-min i.v. infusion",3.82 L/kg
same,AUC(0-t),[6]; 8 mg/kg,34200 ng·h/mL
same,Cmax,[6]; 8 mg/kg,34400 ng/mL
same,MRT,[6]; 8 mg/kg,3.4 h
same,clearance,[6]; 8 mg/kg,7 mL/min/kg
same,half-life,[6]; 8 mg/kg,3.3 h
same,Vd,"[6]; 8 mg/kg, Vd (volume of distribution), 8 mg kg^−1 10-min i.v. infusion",2.14 L/kg
same,Vd,"[6]; 8 mg/kg, Vss (volume of distribution at steady state), 8 mg kg^−1 10-min i.v. infusion",1.32 L/kg
same,AUC(0-t),[6]; 16 mg/kg,54900 ng·h/mL
same,Cmax,[6]; 16 mg/kg,72700 ng/mL
same,MRT,[6]; 16 mg/kg,5.3 h
same,clearance,[6]; 16 mg/kg,5.83 mL/min/kg
same,half-life,[6]; 16 mg/kg,5 h
same,Vd,"[6]; 16 mg/kg, Vd (volume of distribution), 16 mg kg^−1 10-min i.v. infusion",2.36 L/kg
same,Vd,"[6]; 16 mg/kg, Vss (volume of distribution at steady state), 16 mg kg^−1 10-min i.v. infusion",1.61 L/kg
